{
  "source": "patent US4863741A",
  "about": "“Tablet composition for drug combinations” (Abbott Laboratories, priority 1989, dated 1989)",
  "assay_type": "physicochemical",
  "conditions": "for t90 (time required for 10% destruction of erythromycin activity): 25° C.; for t50 (time required for 50% destruction of erythromycin activity): water",
  "experimental": "To evaluate the feasibility of a single, non-enteric coated preparation containing erythromycin, the times required for 50% destruction of erythromycin activity t50) and 10% destruction of erythromycin activity t90) in aqueous solution at 25° C. were calculated as a function of pH from data reported in the literature.",
  "note": "Read-outs that look alike come from different tables or passages of the source.",
  "data": [
    {"smiles": "CC[C@H]1OC(=O)[C@H](C)[C@@H](O[C@H]2C[C@@](C)(OC)[C@@H](O)[C@H](C)O2)[C@H](C)[C@@H](O[C@@H]2O[C@H](C)C[C@H](N(C)C)[C@H]2O)[C@](C)(O)C[C@@H](C)C(=O)[C@H](C)[C@@H](O)[C@]1(C)O", "note": "[erythromycin]", "values": [
      {"measurement": "t90 (time required for 10% destruction of erythromycin activity)", "setting": "pH 3.0, aqueous solution", "result": 1.52, "unit": "min"},
      {"measurement": "t90 (time required for 10% destruction of erythromycin activity)", "setting": "pH 3.5, aqueous solution", "result": 528, "unit": "min"},
      {"measurement": "t90 (time required for 10% destruction of erythromycin activity)", "setting": "pH 4.0, aqueous solution", "result": 15.2, "unit": "min"},
      {"measurement": "t90 (time required for 10% destruction of erythromycin activity)", "setting": "pH 4.5, aqueous solution", "result": 52.8, "unit": "min"},
      {"measurement": "t90 (time required for 10% destruction of erythromycin activity)", "setting": "pH 5.0, aqueous solution", "result": 152, "unit": "min"},
      {"measurement": "t90 (time required for 10% destruction of erythromycin activity)", "setting": "pH 5.5, aqueous solution", "result": 528, "unit": "min"},
      {"measurement": "t90 (time required for 10% destruction of erythromycin activity)", "setting": "pH 6.0, aqueous solution", "result": 1530, "unit": "min"},
      {"measurement": "t50 (time required for 50% destruction of erythromycin activity)", "setting": "pH 3", "result": 0.167, "unit": "h"},
      {"measurement": "t50 (time required for 50% destruction of erythromycin activity)", "setting": "pH 3.5", "result": 0.578, "unit": "h"},
      {"measurement": "t50 (time required for 50% destruction of erythromycin activity)", "setting": "pH 4", "result": 1.67, "unit": "h"},
      {"measurement": "t50 (time required for 50% destruction of erythromycin activity)", "setting": "pH 4.5", "result": 5.79, "unit": "h"},
      {"measurement": "t50 (time required for 50% destruction of erythromycin activity)", "setting": "pH 5", "result": 16.7, "unit": "h"},
      {"measurement": "t50 (time required for 50% destruction of erythromycin activity)", "setting": "pH 5.5", "result": 57.8, "unit": "h"},
      {"measurement": "t50 (time required for 50% destruction of erythromycin activity)", "setting": "pH 6", "result": 167, "unit": "h"}
    ]}
  ]
}
